Measurements: patent publication US4210749A, “Substituted 1,2,4,5-tetrahydro-3H,3 benzazepines” (priority 1979, dated 1980)
Counter-ions that a name gives are not always drawn.

What was measured:
Type in all cases: in vivo
[1] = Analgesic activity, hot plate method
[2] = Analgesic activity, writhing method
[3] = test system: sciatic block; assay: Local anesthetic sciatic block, Table IV; settings: 1%
[4] = Narcotic antagonism I.P., Table IV
[5] = Mouse tail stimulation (MST), Table IV; parameters: unit not given here; settings: S.C.
[6] = I.P. symptomatology (highest tolerated dose, median lethal dose), Table IV; settings: in vivo, ip; for MTD: read-out: HTD (highest tolerated dose)

Compound: COc1ccc2c3c1O[C@H]1[C@@H](O)C=C[C@H]4[C@@H](C2)N(C)CC[C@@]341 [Codeine, reference compound]
- ED50 ([1]; ip): 12 mg/kg
- ED50 ([1]; po): 20 mg/kg
- ED50 ([2]; po): 17 mg/kg

Compound: COc1ccc2c(c1)CCNCC2 [Example 1, 7-Methoxy-1,2,4,5-tetrahydro-3H,3-benzazepine]
- Local Anesthetic Sciatic Block [3]: Positive
- Narcotic Antagonism [4]: Negative
- MST (mouse tail stimulation) [5]: > 3
- LD50 [6]: 60 mg/kg
- MTD [6]: 3 mg/kg

Compound: CC(=O)Oc1ccc2c(c1)CCN(CC=C(C)C)CC2 [Example 5, 7-Acetoxy-3-(3,3-dimethylallyl)-1,2,4,5-tetrahydro-3H,3-benzazepine hydrochloride]
- Local Anesthetic Sciatic Block [3]: Positive
- Narcotic Antagonism [4]: Positive
- MST (mouse tail stimulation) [5]: > 30
- LD50 [6]: ~200 mg/kg
- MTD [6]: ~10 mg/kg

Compound: C=CCN1CCc2ccc(O)cc2CC1 [Example 11, 3-Allyl-7-hydroxy-1,2,4,5-tetrahydro-3H,3-benzazepine]
- Local Anesthetic Sciatic Block [3]: Positive
- Narcotic Antagonism [4]: Positive
- ED50 ([1]; ip): 35 mg/kg
- ED50 ([1]; po): > 316 mg/kg
- ED50 ([2]; po): > 316 mg/kg
- LD50 [6]: 50 mg/kg
- MTD [6]: 20 mg/kg

Compound: COc1ccc2c(c1)CCN(CC1CCCC1)CC2 [Example 12, 3-Cyclopentylmethyl-7-methoxy-1,2,4,5-tetrahydro-3H,3-benzazepine]
- ED50 ([1]; ip): 45 mg/kg
- ED50 ([1]; po): > 178 mg/kg
- ED50 ([2]; po): > 178 mg/kg

Compound: CCN1CCc2ccc(OC)cc2CC1 [Example 20, 3-Ethyl-7-methoxy-1,2,4,5-tetrahydro-3H,3-benzazepine]
- Local Anesthetic Sciatic Block [3]: Positive
- Narcotic Antagonism [4]: Negative
- ED50 ([1]; ip): 15 mg/kg
- ED50 ([1]; po): > 125 mg/kg
- ED50 ([2]; po): > 125 mg/kg
- ED50 ([2]; sc): > 32 mg/kg
- LD50 [6]: 60 mg/kg
- MTD [6]: 1 mg/kg

Compound: CCCN1CCc2ccc(OC)cc2CC1 [Example 22, 7-Methoxy-3-n-propyl-1,2,4,5-tetrahydro-3H,3-benzazepine]
- Narcotic Antagonism [4]: Positive
- ED50 ([1]; ip): 26 mg/kg
- ED50 ([1]; po): > 316 mg/kg
- ED50 ([2]; po): > 316 mg/kg
- ED50 ([2]; sc): > 32 mg/kg
- LD50 [6]: 50 mg/kg
- MTD [6]: 30 mg/kg

Compound: CC(C)=CCN1CCc2ccc(O)cc2CC1C (centres unmarked) [Example 34, 3-(3,3-Dimethylallyl)-8-hydroxy-2-methyl-1,2,4,5-tetrahydro-3H,3-benzazepine hydrochloride]
- Local Anesthetic Sciatic Block [3]: Positive
- Narcotic Antagonism [4]: Positive
- MST (mouse tail stimulation) [5]: > 40
- LD50 [6]: 60 mg/kg
- MTD [6]: 10 mg/kg

Compound: C=CCN1CCc2ccc(OC)cc2CC1C (centres unmarked) [Example 38, 3-Allyl-8-methoxy-2-methyl-1,2,4,5-tetrahydro-3H,3-benzazepine hydrochloride]
- Narcotic Antagonism [4]: Positive
- MST (mouse tail stimulation) [5]: > 10
- LD50 [6]: 200 mg/kg
- MTD [6]: 10 mg/kg

Compound: COc1ccc2c(c1)CC(C)N(CCc1ccccc1C)CC2 (centres unmarked) [Example 59, 3-(o-Methylphenethyl)-8-methoxy-2-methyl-1,2,4,5-tetrahydro-3H,3-benzazepine hydrochloride]
- Local Anesthetic Sciatic Block [3]: Insoluble
- Narcotic Antagonism [4]: Negative
- LD50 [6]: ~60 mg/kg
- MTD [6]: 0.3 mg/kg

Compound: Oc1ccc2c(c1)CCN(Cc1ccco1)CC2 [Example 60, 3-Furfuryl-7-hydroxy-1,2,4,5-tetrahydro-3H,3-benzazepine hydrochloride]
- Local Anesthetic Sciatic Block [3]: Positive
- Narcotic Antagonism [4]: Negative
- LD50 [6]: ~200 mg/kg
- MTD [6]: 10 mg/kg

Compound: COc1ccc(CCN2CCc3ccc(OC)cc3CC2C)cc1 (centres unmarked) [Example 61, 8-Methoxy-3-(p-methoxyphenethyl-2-methyl-1,2,4,5-tetrahydro-3H,3-benzazepine hydrochloride]
- Local Anesthetic Sciatic Block [3]: Positive
- Narcotic Antagonism [4]: Negative
- LD50 [6]: ~60 mg/kg
- MTD [6]: 3 mg/kg

Compound: CN1CC[C@]23c4c5ccc(O)c4O[C@H]2[C@@H](O)C=C[C@H]3[C@H]1C5 [Morphine, reference compound]
- Hot Plate ED50 ([1]; IP): 2.5 mg/kg
- Hot Plate ED50 ([1]; PO): 14 mg/kg
- Writhing ED50 ([2]; PO): 3 mg/kg
